We go through one compound from patent US4900815A, “Sulfated polysaccharide DS4152” (Daiichi Seiyaku Co., Ltd., priority 1986, dated 1990).

The T/C is the ratio of treated to control.

The test system of assay [1] is CAM vascularization. Put plainly: Antiangiogenic Effects (Ex Vivo) of steroids with or without DS4152. On the set-up: species or system chick (blood from male ICR mice). As to conditions: steroid p.o. 5 mg/kg. Here is the method: Male ICR mice were orally administered with a solution of DS4152 dissolved in physiological saline. A saline suspension of a steroid was administered orally or intramuscularly, either in combination with DS4152 or alone. Blood samples collected after 6 hours were prevented from coagulation with a 0.313% aqueous solution of sodium citrate. Each blood sample was added to the 5 day CAM in the same manner as in the direct method. The inhibitory effects were judged after two days. Results were expressed by inhibition ratios (%) of CAM vascularization of each group to that of control group with a blood sample collected from the mice with saline. (Table 11).

For assay [2], the system named is Sarcoma 180 (S180). The experiment in a line: Antitumor Test, Sarcoma 180, DS4152 and cortisone acetate. Format: in vivo, mouse (male ICR). Here is the method:
Male ICR mice (5 weeks old) were each inoculated subcutaneously with 1×10^6 cells of Sarcoma 180 (S180). From the 3rd day, a saline suspension of cortisone acetate was administered at a dose of 250 mg/kg/day for 3 days and then at a dose of 100 mg/kg/day for 1 day.
DS4152 was dissolved in physiological saline and administered at a dose of 0.61 or 6.1 mg/mouse subcutaneously or orally once a day for 4 days. On the 7th day after the inoculation, the mice were sacrificed to compare their tumor weights with those of the control mice.

For assay [3], the system named is CAM vascularization of chick embryos. Put plainly: CAM Angiogenesis Inhibition Test (Direct Method), combination with cortisone acetate. Format: in vivo. Conditions: 0.5 μg per embryo, alone. Here is the method: Using chick embryos, a test was carried out in accordance with the following method, which was a partial modification of the Taylor-Folkman'smethod Nature, 297, 307 (1982)].
Either DS4152 or heparin dissolved in physiological saline was added to the CAM of each 4-5 day old fertilized chicken 1 egg (species: NORIN CROSS) and then the eggs were incubated at 37° C.
Two days after the addition of the agent, the degree of the CAM vascularization was compared with that of a control to which physiological saline was only added. The 50% vascularization inhibition dose (ID50) was calculated by the probit method.
In the same manner as in Example 2, combination effects of a steroid and DS4152 were examined. […] The activities of DF4639 and H Fraction were also investigated in the comparison with that of DS4152.

In assay [4] the test system is angiogenesis of the chick CAM. Put plainly: CAM angiogenesis inhibition, various steroids alone or with DS4152. The class given is in vivo.
The mark [5] stands for this setting: cortisone acetate alone, 250 then 100 mg/kg/day.

For `CC(=O)OCC(=O)[C@@]1(O)CC[C@H]2[C@@H]3CCC4=CC(=O)CC[C@]4(C)[C@H]3C(=O)C[C@@]21C` [Cortisone acetate], the “Inhibition rate of angiogenesis” value in assay [1] (DS4152 0) came out at 7.7%. In addition, the “Inhibition rate of angiogenesis” value in assay [1] (DS4152 30 mg/kg p.o.) is 75.1%. In addition, in assay [2] (setting [5]), the T/C was 94.2% and the “Tumor weight, mean ± standard error” value came out at 0.340 ± 0.162. Further, in assay [2] (cortisone acetate only), the “tumor weight compared with saline group” value was “not different”. Moreover, the influence on vascularization result in assay [3] is given as “not to give any influence to the vascularization”. In addition, the degree of increase in assay [4] (ID50 alone vs. in the presence of 10 ng of DS4152) came out at 7.1 times. Besides, the “ID50, used in combination with DS4152” value in assay [4] (in the presence of 10 ng of DS4152) was 0.17 μg/embryo. In addition, in assay [4] (steroid alone), the “ID50, alone” value worked out at 1.20 μg/embryo.
